Measurements from patent publication US20170209579A1, “NON-INVASIVE RADIOFREQUENCY FIELD TREATMENT FOR CANCER THERAPY” (Baylor College of Medicine, priority 2014, published 2017).

Key:
shMre11 Hep3B cell line = assay: Clonogenic assay, Mre11 knockdown (shMre11) Hep3B cell line; type: cell-based, human
Excerpt: For generating an Mre11-knockdown cell line, GPIZ lentiviral shRNA (Open biosystems, Lafayette, Colo.) was used according to the supplied protocol. In order to generate lentivirus, Hep3B cells were transfected in separate experiments with three random clones from a,shRNA library against Mre11 or a control shRNA together with a packaging plasmid (Trans-lentiviral packaging system, Open biosystems, Lafayette, Colo.) using lipofectamine 2000 (Invitrogen, Life technologies, Grand Island, N.Y.). Approximately 72 hours later, cells were observed under a microscope to express GFP, which is a marker of expression of shRNA against Mre11. Relative mre11 knockdown was confirmed by western blot analysis.
Clonogenic assay estimates single-cell reproductive viability by measuring the ability of a single cell to form a colony of 50 cells or more. Clonogenic assay in this study was performed as described previously (Franken et al., 2006). Briefly, cancer cells from an exponentially growing, sub-confluent culture were trypsinized and harvested. Approximately 200 cells were counted and plated in each well of a 6-well plate. Approximately 12 hours later, the cells were adherent and treatment conditions were introduced as described herein. […] The number of colonies in each well was counted using a colony counting grid. […]

HepG2 xenograft = assay: Orthotopic HepG2 xenografts in CB17 SCID mice, tumor mass; type: in vivo, mouse
Excerpt: For in vivo studies, an implanted mouse model of human HCC was generated in CB17SCID mice (Taconic, Hudson, N.Y.). Female mice between 4 and 5 weeks in age were purchased and acclimatized in M.D. Anderson Animal facilities for up to one week. All animals were handled, housed and studied in accordance with the Institutional Animal Care and Use Committee. Tumors were generated after orthotopic implantation of approximately 1.6 million cells into the liver of each mouse (10 mice per group). Bioluminescence imaging indicated tumor development in the majority of mice three weeks after implantation. Euthanasia was performed by carbon dioxide inhalation followed by cervical spine dislocation.
Cultured luciferase and GFP-expression human HCC cell lines (Hep3B and HepG2) were harvested from an exponentially growing culture and washed with PBS. The cells were re-suspended in 3 ml PBS and final centrifugation was performed at 1000 RPM for 5 minutes. Supernatant was discarded and the cell pellet was used for implantation. The concentration of cells achieved using this protocol was 160,000 cells per micro liter. The cells were kept on ice and animals were injected within 3-4 hours after final centrifugation.
Before surgery, hair was removed from the ventral surface of the abdomen using clippers. Mice were anesthetized using 2.5% isoflurane. The surgical field was sterilized with 70% (v/v) ethanol in water. Mice were placed supine on a heating pad and the surgical site was sterilized using povidone iodine swab sticks. After confirming induction of anesthesia, an approximately 1-cm transverse incision was made in the skin of the upper abdomen slightly left of the midline. Deeper layers of muscle and peritoneum were incised and hemostasis was achieved using silver nitrate chemical cautery sticks. By applying gentle pressure on the lower abdomen and lower chest, the left lobe of the liver was eviscerated. […]
Mice with confirmed tumors on bioluminescence were then randomized in groups of 10. […] Sample size was calculated using Stata SE 12.1 for Mac (College Station, Tex.). […]

## Nc1ccn([C@@H]2O[C@H](CO)[C@@H](O)C2(F)F)c(=O)n1 [gemcitabine, 2′,2′-difluoro 2′-deoxycytidine]
shMre11 Hep3B cell line; clonogenic survival
  sensitivity to gemcitabine, shMre11 versus shControl cell line: more sensitive to gemcitabine
shMre11 Hep3B cell line; shControl versus shMre11 cells
  thermal enhancement of gemcitabine toxicity: noted for shControl but not shMre11 cells
HepG2 xenograft; RF then gemcitabine, weekly for three weeks
  Mean tumor mass [±SD]: 107 ± 64 mg
HepG2 xenograft; gemcitabine alone, weekly treatments for three weeks
  Mean tumor mass [±SD]: 170 ± 51 mg
HepG2 xenograft; gemcitabine then RF, weekly for three weeks
  Mean tumor mass [±SD]: 74 ± 45 mg
